Format in all cases: in vivo
One assay has as its system Erysiphe cichoracearum. Briefly: Erysiphe cichoracearum test in cucumber (preventive, glasshouse). Particulars: single compound; for pest or weed control at 0.05 ppm / pest or weed control at 0.1 ppm: cucumber, preventive.
In the next assay the test system is Botrytis cinerea. The assay can be described thus: Botrytis cinerea test in tomato (preventive, glasshouse). The conditions noted are these: single compound, read-out: Observed Efficacy (%); for pest or weed control at 1 ppm: Conc. 1 ppm; for pest or weed control at 5 ppm: Conc. 5 ppm; for pest or weed control at 20 ppm: Conc. 20 ppm; for pest or weed control at 0.05 ppm: Conc. 0.05 ppm; for pest or weed control at 0.1 ppm: Conc. 0.1 ppm.

A further assay has as its system Alternaria solani. The assay can be described thus: Alternaria solani test in tomato (preventive, glasshouse). The conditions noted are these: for pest or weed control at 1 ppm / pest or weed control at 5 ppm / pest or weed control at 20 ppm / pest or weed control at 0.05 ppm / pest or weed control at 0.1 ppm: Alternaria solani; for pest or weed control at 1 ppm / pest or weed control at 5 ppm / pest or weed control at 20 ppm / Observed Efficacy (%): preventive; for pest or weed control at 0.05 ppm / pest or weed control at 0.1 ppm: preventive spray.

Another assay concerns Phakopsora pachyrhizi. The assay can be described thus: Phakopsora pachyrhizi test in soybean (preventive, glasshouse). The conditions noted are these: single compound; for pest or weed control at 0.0001 ppm / pest or weed control at 0.001 ppm / pest or weed control at 0.01 ppm / pest or weed control at 0.05 ppm / pest or weed control at 0.1 ppm: Phakopsora pachyrhizi, read-out: Observed Efficacy (%); for pest or weed control at 0.0001 ppm: Conc. 0.0001 ppm; for pest or weed control at 0.001 ppm: Conc. 0.001 ppm; for pest or weed control at 0.01 ppm: Conc. 0.01 ppm.

In a further assay the test system is Pyricularia oryzae. Briefly: whole plant or invertebrate. Particulars: Pyricularia oryzae, read-out: Observed Efficacy.
A further assay relates to Septoria nodorum. The assay can be described thus: Parastagonospora nodorum/Septoria nodorum/Stagnospora nodorum test in wheat (preventive, glasshouse). Particulars: Parastagonospora nodorum, single compound, read-out: Observed Efficacy (%). A digest of the protocol: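 Greenhouse-raised young wheat sprayed preventively at stated rates, inoculated one day later with 2.8×10^6 Stagnospora nodorum inoculum, held at 22-25° C and 90-100% RH. Disease severity (0-100%) rated 3, 7 and 10 days after application; % control relative to untreated plants, with phytotoxicity also recorded.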

[1] abbreviates: Golovinomyces cichoracearum, preventive spray on cucumber, read-out: Observed Efficacy (%).
The mark [2] stands for this setting: Table F4, Botrytis cinerea in tomato, preventive.
Where [3] appears, read: Table F5, Botrytis cinerea in tomato, preventive.
[4] abbreviates: Golovinomyces cichoracearum, 0.05 ppm, read-out: Observed Efficacy (%).
Setting [5] is: Golovinomyces cichoracearum, 0.1 ppm, read-out: Observed Efficacy (%).
Where [6] appears, read: 0.05 ppm, preventive spray on cucumber.
Setting [7] is: 0.1 ppm, preventive spray on cucumber.
The mark [8] stands for this setting: Botrytis cinerea, preventive spray on tomato, % control vs untreated.
Where [9] appears, read: single compound, 0.05 ppm, read-out: Observed Efficacy (%).
Where [10] appears, read: single compound, 0.1 ppm, read-out: Observed Efficacy (%).
Where [11] appears, read: Table B4, single compound, Conc. 0.05 ppm.
[12] abbreviates: Table B4, single compound, Conc. 0.1 ppm.
Where [13] appears, read: 0.05 ppm, preventive spray on soybean.
[14] abbreviates: 0.1 ppm, preventive spray on soybean.
Where [15] appears, read: Conc. 0.05 ppm, soybean, preventive, Table D4.
[16] abbreviates: Conc. 0.05 ppm, soybean, preventive, Table D5.
Setting [17] is: Conc. 0.1 ppm, soybean, preventive, Table D4.
The mark [18] stands for this setting: Conc. 0.1 ppm, soybean, preventive, Table D5.
The mark [19] stands for this setting: single compound, Conc. 0.05 ppm, read-out: Observed Efficacy.
The mark [20] stands for this setting: single compound, Conc. 0.1 ppm, read-out: Observed Efficacy.
Setting [21] is: Table B3, single compound, Conc. 0.1 ppm.

Where two headings read alike, the source gives them in different places.

Turning to `CCN(C)C=Nc1cc(C)cc(Cc2cccc(F)c2)c1C` [Compound (I-4), N-ethyl-N′-(3-(3-fluorobenzyl)-2,5-dimethylphenyl)-N-methylformimidamide], the pest or weed control at 1 ppm amounted to 33% with Erysiphe cichoracearum (setting [1]); 10% with Botrytis cinerea (setting [2]); 20% with Alternaria solani (Table B4, single compound, Conc. 1 ppm, read-out: Observed Efficacy (%)); 17% in the assay with Pyricularia oryzae; 20% in the assay on Septoria nodorum. Further, the pest or weed control at 5 ppm with Erysiphe cichoracearum (setting [1]) was 63%; in the assay with Botrytis cinerea (setting [2]), 17%; in the assay on Alternaria solani (Table B4, single compound, Conc. 5 ppm, read-out: Observed Efficacy (%)) it was 27%; in the assay with Pyricularia oryzae it was 23%; in the assay on Septoria nodorum it was 23%. Besides, the pest or weed control at 20 ppm amounted to 23% in the assay with Botrytis cinerea (setting [2]); 37% with Alternaria solani (Table B4, single compound, Conc. 20 ppm, read-out: Observed Efficacy (%)); 33% in the assay with Pyricularia oryzae; 27% in the assay with Septoria nodorum. Besides, the pest or weed control at 0.0001 ppm in the assay with Phakopsora pachyrhizi (soybean, preventive, Table D4) worked out at 43%. Also, the pest or weed control at 0.001 ppm in the assay on Phakopsora pachyrhizi (soybean, preventive, Table D4) stood at 47%. In addition, the pest or weed control at 0.01 ppm with Phakopsora pachyrhizi (soybean, preventive, Table D4) was determined as 59%.

In the case of `CCN(C)C=Nc1cc(F)cc(Cc2cccc(C)c2)c1C` [Compound (I-5), N-ethyl-N′-(5-fluoro-2-methyl-3-(3-methylbenzyl)phenyl)-N-methylformimidamide], the pest or weed control at 1 ppm in the assay with Erysiphe cichoracearum (setting [1]) was 23%; in the assay with Botrytis cinerea (setting [3]), 53%; in the assay with Alternaria solani (single compound, 1 ppm, read-out: Observed Efficacy (%)), 13%; in the assay on Pyricularia oryzae, 23%; in the assay with Septoria nodorum it was 23%. Moreover, the pest or weed control at 5 ppm in the assay on Erysiphe cichoracearum (setting [1]) was 47%; with Botrytis cinerea (setting [3]) it was 63%; with Alternaria solani (single compound, 5 ppm, read-out: Observed Efficacy (%)), 17%; in the assay on Pyricularia oryzae it was 37%; with Septoria nodorum, 33%. Further, the pest or weed control at 20 ppm is 77% with Erysiphe cichoracearum (Golovinomyces cichoracearum, 20 ppm, preventive spray on cucumber, read-out: Observed Efficacy (%)); 73% in the assay with Botrytis cinerea (setting [3]); 27% in the assay with Alternaria solani (single compound, 20 ppm, read-out: Observed Efficacy (%)); 47% in the assay on Pyricularia oryzae; 40% in the assay on Septoria nodorum. Also, in the assay on Phakopsora pachyrhizi (soybean, preventive, Table D5), the pest or weed control at 0.0001 ppm was determined as 37%. Also, the pest or weed control at 0.001 ppm in the assay with Phakopsora pachyrhizi (soybean, preventive, Table D5) came to 50%. Further, in the assay on Phakopsora pachyrhizi (soybean, preventive, Table D5), the pest or weed control at 0.01 ppm came out at 61%.

Consider `N#Cc1sc2c(=O)c3ccccc3c(=O)c=2sc1C#N` [Dithianon, dithianon], for which the pest or weed control at 0.05 ppm with Erysiphe cichoracearum (setting [4]) was 11%; in the assay with Botrytis cinerea (setting [8]) it was 38%; in the assay on Alternaria solani (setting [9]), 21%; in the assay with Phakopsora pachyrhizi (setting [13]), 15%; with Pyricularia oryzae it was 34%; in the assay with Septoria nodorum it was 11%. The pest or weed control at 0.1 ppm in the assay on Erysiphe cichoracearum (setting [5]) worked out at 18%; in the assay with Botrytis cinerea (setting [8]), 45%; in the assay on Alternaria solani (setting [10]), 26%; with Phakopsora pachyrhizi (setting [14]), 24%; with Pyricularia oryzae it was 42%; in the assay with Septoria nodorum, 16%. Also, the “Observed Efficacy (%)” value is 11% in the assay with Erysiphe cichoracearum (setting [6]); 18% in the assay on Erysiphe cichoracearum (setting [7]); 21% with Alternaria solani (setting [11]); 26% with Alternaria solani (setting [12]); 21% in the assay on Alternaria solani (single compound, 0.05 ppm); 26% in the assay on Alternaria solani (single compound, 0.1 ppm). In addition, the “Observed Efficacy (%)” value was determined as 15% in the assay on Phakopsora pachyrhizi (setting [15]), 15% in the assay with Phakopsora pachyrhizi (setting [16]), 24% in the assay on Phakopsora pachyrhizi (setting [17]) and 24% in the assay with Phakopsora pachyrhizi (setting [18]).

Turning to `O=C1c2ccccc2C(=O)N1SC(Cl)(Cl)Cl` [Folpet, folpet], the pest or weed control at 0.05 ppm with Erysiphe cichoracearum (setting [4]) was determined as 24%; in the assay on Botrytis cinerea (setting [8]), 24%; in the assay on Alternaria solani (setting [9]) it was 12%; in the assay on Alternaria solani (setting [19]) it was 12%; in the assay on Phakopsora pachyrhizi (setting [13]), 5%; in the assay on Pyricularia oryzae it was 34%. Besides, in the assay on Septoria nodorum, the pest or weed control at 0.05 ppm was determined as 16%. Further, the pest or weed control at 0.1 ppm in the assay on Erysiphe cichoracearum (setting [5]) amounted to 32%; in the assay with Botrytis cinerea (setting [8]) it was 38%; in the assay on Alternaria solani (setting [10]), 16%; with Alternaria solani (setting [20]) it was 16%; in the assay on Phakopsora pachyrhizi (setting [14]), 12%; in the assay with Pyricularia oryzae it was 39%. In addition, the pest or weed control at 0.1 ppm in the assay with Septoria nodorum is 21%. Moreover, the “Observed Efficacy (%)” value in the assay with Erysiphe cichoracearum (setting [6]) turned out to be 24%; in the assay on Erysiphe cichoracearum (setting [7]), 32%; with Alternaria solani (Table B3, single compound, Conc. 0.05 ppm) it was 12%; in the assay with Alternaria solani (setting [21]) it was 16%; with Alternaria solani (setting [12]), 16%; in the assay on Alternaria solani (single compound, 0.05 ppm) it was 12%. The “Observed Efficacy (%)” value worked out at 16% in the assay on Alternaria solani (single compound, 0.1 ppm); 5% in the assay on Phakopsora pachyrhizi (setting [15]); 5% in the assay on Phakopsora pachyrhizi (setting [16]); 12% in the assay with Phakopsora pachyrhizi (setting [17]); 12% in the assay on Phakopsora pachyrhizi (setting [18]).

Regarding `CNC(=O)/C(=N/OC)c1ccccc1Oc1ccccc1` [Metominostrobin, metominostrobin], the pest or weed control at 0.05 ppm came out at 14% with Erysiphe cichoracearum (setting [4]); 26% with Alternaria solani (setting [9]); 26% in the assay on Alternaria solani (setting [19]); 45% with Phakopsora pachyrhizi (setting [15]); 17% in the assay on Pyricularia oryzae; 6% in the assay with Septoria nodorum. The pest or weed control at 0.1 ppm in the assay on Erysiphe cichoracearum (setting [5]) was 57%; in the assay with Botrytis cinerea (setting [3]), 40%; in the assay with Alternaria solani (setting [10]), 31%; in the assay on Alternaria solani (setting [20]), 31%; in the assay with Phakopsora pachyrhizi (setting [18]), 56%; in the assay with Pyricularia oryzae, 33%. The pest or weed control at 0.1 ppm with Septoria nodorum came out at 12%. In addition, the “Observed Efficacy (%)” value is 14% with Erysiphe cichoracearum (setting [6]); 31% with Alternaria solani (setting [21]); 26% in the assay on Alternaria solani (setting [11]); 31% in the assay with Alternaria solani (setting [12]); 26% in the assay on Alternaria solani (single compound, 0.05 ppm); 31% with Alternaria solani (single compound, 0.1 ppm). Besides, the “Observed Efficacy (%)” value in the assay with Phakopsora pachyrhizi (setting [16]) came to 45%.

For the origin of these results see patent US20230413824A1, “AGROCHEMICAL COMPOSITION COMPRISING 3-SUBSTITUTED PHENYLAMIDINE COMPOUNDS AND USE THEREOF” (PI INDUSTRIES LIMITED, priority 2020, published 2023).
